Consider 45 compounds from ChEMBL document CHEMBL4819055, “Discovery of 5-(N-hydroxycarbamimidoyl) benzofuran derivatives as novel indoleamine 2,3-dioxygenase 1 (IDO1) inhibitors” (Bioorg Med Chem Lett, 2021).

SMILES strings stand for the structures.

Experiment [1] has as its target T1, Indoleamine 2,3-dioxygenase 1 (Homo sapiens, UniProt P14902). Nature of the experiment: Inhibition of IDO1 (unknown origin) assessed as reduction in kynurenine formation using L-tryptophan as substrate by absorbance based analysis.
For experiment [2], the target named is T1, Indoleamine 2,3-dioxygenase 1. Nature of the experiment: Inhibition of IDO1 in IFNgamma-stimulated human HeLa cells assessed as reduction in kynurenine formation using L-tryptophan as substrate by absorbance based analysis.

T1 sequence (P14902 whole entry): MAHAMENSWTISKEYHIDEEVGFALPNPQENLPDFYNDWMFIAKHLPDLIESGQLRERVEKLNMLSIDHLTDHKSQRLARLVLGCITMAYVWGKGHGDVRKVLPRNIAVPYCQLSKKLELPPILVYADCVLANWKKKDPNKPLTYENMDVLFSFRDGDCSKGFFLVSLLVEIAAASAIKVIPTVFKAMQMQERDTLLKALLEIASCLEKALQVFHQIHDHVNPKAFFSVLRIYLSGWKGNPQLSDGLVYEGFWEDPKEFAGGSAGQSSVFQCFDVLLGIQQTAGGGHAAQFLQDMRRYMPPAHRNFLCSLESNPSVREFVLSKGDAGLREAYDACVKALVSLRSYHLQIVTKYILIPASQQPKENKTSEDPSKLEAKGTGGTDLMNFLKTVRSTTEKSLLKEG

As usually defined, the IC50 is the point on the concentration scale where inhibition reaches its midpoint. `O/N=C(/Nc1cccc(COc2ccccc2)c1)c1ccc2occc2c1`: the IC50 in experiment [1] and in experiment [2] was more than 30 µM throughout.

With `O=C(NCC1CCCCC1)c1cccc(N/C(=N/O)c2ccc3occc3c2)c1`, the half-inhibitory concentration (IC50) in experiment [1] and in experiment [2] was more than 30 µM each time.

With `O=C(NCc1ccccc1)c1cccc(N/C(=N/O)c2ccc3occc3c2)c1`, the IC50 in experiment [1] and in experiment [2] was more than 30 µM throughout.

For `COc1cc(N/C(=N/O)c2ccc3oc4ccccc4c3c2)cc(OC)c1`, the IC50 in experiment [1] and in experiment [2] was more than 30 µM each time.

For the compound `O/N=C(/Nc1cccc(Br)c1)c1ccc2oc3ccccc3c2c1`, the values for the IC50 in experiment [1] and in experiment [2] were 1.3 µM and 10.8 µM, respectively.

Turning to `O/N=C(/NCc1cccc(Cl)c1)c1ccc2oc3ccccc3c2c1`, the figures for the IC50 in experiment [1] and in experiment [2] were 3.6 µM and 29.6 µM, respectively.

Consider `O/N=C(/Nc1cccc(F)c1)c1ccc2oc(COCC3CC3)cc2c1`, for which the IC50 in experiment [1] worked out at 2.2 µM; in experiment [2], 8 µM.

As for `O/N=C(/Nc1cccc(C(F)(F)F)c1)c1ccc2occc2c1`, the figures for the IC50 in experiment [1] and in experiment [2] were 1.2 µM and 1.9 µM, respectively.

On to `CCCCOc1cccc(N/C(=N/O)c2ccc3occc3c2)c1`, for which the IC50 in experiment [1] and in experiment [2] was more than 30 µM each time.

Consider `O/N=C(/NCc1cccs1)c1ccc2occc2c1`, for which the IC50 is more than 30 µM in experiment [1] and 16.2 µM in experiment [2].

Take `O/N=C(/Nc1cccc(Cl)c1)c1ccc2oc3ccccc3c2c1`: the IC50 in experiment [1] came to 1.8 µM; in experiment [2], 7.6 µM.

As to `COCc1cc2cc(/C(=N\O)Nc3cccc(F)c3)ccc2o1`, the IC50 is 7.1 µM in experiment [1] and 6.1 µM in experiment [2].

As for `O/N=C(/Nc1cccc(F)c1)c1ccc2oc(-c3ccccc3)cc2c1`, the IC50 in experiment [1] was 11 µM; in experiment [2], 10.6 µM.

Consider `CC(=O)c1cccc(N/C(=N/O)c2ccc3occc3c2)c1`, for which the IC50 in experiment [1] and in experiment [2] was more than 30 µM each time.

For the compound `COCc1cc2cc(/C(=N\O)Nc3cccc(Br)c3)ccc2o1`, the IC50 in experiment [1] came to 0.93 µM; in experiment [2], 2.5 µM.

In the case of `O/N=C(/Nc1cccc(Br)c1)c1ccc2occc2c1`, the IC50 in experiment [1] was 0.44 µM; in experiment [2], 1.1 µM.

With `OCc1cc2cc(/C(=N\O)Nc3cccc(Br)c3)ccc2o1`, the IC50 was 0.71 µM in experiment [1] and 1.2 µM in experiment [2].

For the compound `O/N=C(/Nc1cccc(-c2ccccc2)c1)c1ccc2occc2c1`, the IC50 in experiment [1] turned out to be 11 µM; in experiment [2], 11.9 µM.

With `O/N=C(/Nc1cccc(Cl)c1)c1ccc2oc(-c3ccccc3)cc2c1`, the IC50 in experiment [1] was 0.9 µM; in experiment [2] it was 10.8 µM.

Turning to `O/N=C(/Nc1ccc(F)c(Br)c1)c1ccc2oc3ccccc3c2c1`, the IC50 was 2.4 µM in experiment [1] and 16.2 µM in experiment [2].

In the case of `O/N=C(/Nc1ccc(F)c(Cl)c1)c1ccc2oc3ccccc3c2c1`, the IC50 in experiment [1] is 9.6 µM; in experiment [2], 22.8 µM.

On to `O/N=C(/Nc1ccc(F)c(F)c1)c1ccc2occc2c1`, for which the figures for the IC50 in experiment [1] and in experiment [2] were 22.7 µM and 14 µM, respectively.

In the case of `O/N=C(/Nc1ccccc1)c1ccc2occc2c1`, the IC50 in experiment [1] was more than 30 µM; in experiment [2], 19 µM.

Consider `O/N=C(/NCc1cccc(Cl)c1)c1ccc2occc2c1`, for which the IC50 in experiment [1] was more than 30 µM; in experiment [2] it was 5.8 µM.

For the compound `OCc1cc2cc(/C(=N\O)Nc3cccc(F)c3)ccc2o1`, the results for the IC50 in experiment [1] and in experiment [2] were 1.7 µM and 2.4 µM, respectively.

As to `O/N=C(/Nc1cccc(Br)c1)c1ccc2oc(COCC3CC3)cc2c1`, the results for the IC50 in experiment [1] and in experiment [2] were 0.4 µM and 3.2 µM, respectively.

Take `O/N=C(/NCc1ccco1)c1ccc2occc2c1`: the IC50 in experiment [1] and in experiment [2] was more than 30 µM in each case.

As to `O/N=C(/Nc1ccc(F)c(Br)c1)c1ccc2occc2c1`, the IC50 in experiment [1] turned out to be 1.6 µM; in experiment [2], 2.6 µM.

As for `COCc1cc2cc(/C(=N\O)Nc3cccc(Cl)c3)ccc2o1`, the figures for the IC50 in experiment [1] and in experiment [2] were 1 µM and 2.2 µM, respectively.

As for `OCc1cc2cc(/C(=N\O)Nc3cccc(Cl)c3)ccc2o1`, the IC50 in experiment [1] amounted to 8 µM; in experiment [2], 5.9 µM.

Take `O/N=C(/Nc1cccc(Br)c1)c1ccc2oc(-c3ccccc3)cc2c1`: the results for the IC50 in experiment [1] and in experiment [2] were 0.9 µM and 8.6 µM, respectively.

Take `O/N=C(/Nc1cccc(Oc2ccccc2)c1)c1ccc2occc2c1`: the IC50 in experiment [1] and in experiment [2] was more than 30 µM each time.

Regarding `O/N=C(/NCc1ccc(F)c(Cl)c1)c1ccc2occc2c1`, the values for the IC50 in experiment [1] and in experiment [2] were 22 µM and 17.6 µM, respectively.

As for `O/N=C(/NCc1ccccc1)c1ccc2occc2c1`, the IC50 in experiment [1] is more than 30 µM; in experiment [2], 28.2 µM.

`O/N=C(/Nc1cccc(Cc2ccccc2)c1)c1ccc2occc2c1`: the IC50 in experiment [1] and in experiment [2] was more than 30 µM in each case.

Turning to `O/N=C(/Nc1ccc(Cl)c(F)c1)c1ccc2occc2c1`, the IC50 in experiment [1] was more than 30 µM; in experiment [2], 10.3 µM.

For the compound `O/N=C(/NCC1CC1)c1ccc2occc2c1`, the IC50 in experiment [1] and in experiment [2] was more than 30 µM throughout.

With `O/N=C(/Nc1ccc(F)c(C(F)(F)F)c1)c1ccc2occc2c1`, the IC50 in experiment [1] is 1.2 µM; in experiment [2] it was 2.2 µM.

For `O/N=C(/Nc1ccc(Cl)cc1)c1ccc2occc2c1`, the IC50 in experiment [1] and in experiment [2] was more than 30 µM throughout.

Turning to `O/N=C(/Nc1ccc(F)c(Cl)c1)c1ccc2occc2c1`, the half-inhibitory concentration (IC50) in experiment [1] worked out at 5.2 µM; in experiment [2], 1.8 µM.

For the compound `Cc1ccc(N/C(=N/O)c2ccc3occc3c2)cc1C`, the IC50 in experiment [1] and in experiment [2] was more than 30 µM in each case.

On to `CC1CCN(C(=O)c2cccc(N/C(=N/O)c3ccc4occc4c3)c2)CC1`, for which the IC50 in experiment [1] and in experiment [2] was more than 30 µM in each case.

As to `O/N=C(/Nc1cccc(F)c1)c1ccc2occc2c1`, the figures for the IC50 in experiment [1] and in experiment [2] were 32.7 µM and 20 µM, respectively.

As to `O/N=C(/Nc1cccc(Cl)c1)c1ccc2oc(COCC3CC3)cc2c1`, the IC50 in experiment [1] was determined as 1.5 µM; in experiment [2] it was 17.6 µM.

Turning to `O/N=C(/Nc1cccc(Cl)c1)c1ccc2occc2c1`, the IC50 came to 0.69 µM in experiment [1] and 1.5 µM in experiment [2].
